Data: patent publication US20240164376A1, “SYNERGISTIC PLANT GROWTH STIMULANT COMPOSITIONS OF POTASSIUM MONO/DI-FORMATE WITH NITROGENOUS COMPOUNDS” (FERTIS INDIA PVT LTD, priority 2021, published 2024)

Tested on: paddy grains
Assay: Protein content in the paddy grains
Format: in vivo

| SMILES | % Of Protein |
| --- | --- |
| O=CO.O=C[O-].[K+] [Potassium diformate] | 0.0093% |
| NC(N)=O [Urea] | 0.0063% |
| O=C[O-].[K+] [Potassium formate] | 0.0091% |
| NC(=O)N(C=O)C=O [N,Ndiformyl urea (NN-DFU), N,Ndiformyl urea] | 0.0112% |
| CNC(=O)NC [Dimethyl urea] | 0.0081% |
| O=C(Nc1ccccc1)Nc1ccccc1 [Diphenyl urea] | 0.0089% |
